ChEMBL document CHEMBL1134647, “Design and synthesis of non-peptidic inhibitors for the Syk C-terminal SH2 domain based on structure-based in-silico screening” (J Med Chem, 2001)

Tests used:
Type in all cases: functional
[1] = molecular target: T1, Tyrosine-protein kinase SYK (Homo sapiens, UniProt P43405); assay: Inhibitory activity against Syk C-terminal SH2 at 10 mM
[2] = molecular target: T1, Tyrosine-protein kinase SYK; assay: Inhibitory activity against Syk C-terminal SH2.
[3] = molecular target: T1, Tyrosine-protein kinase SYK; assay: Inhibitory activity against Syk C-terminal SH2 domain in in-silico screening
[4] = molecular target: T1, Tyrosine-protein kinase SYK; assay: Inhibitory activity against Syk C-terminal SH2 (at 10 mM)

| IC50 [2] | SMILES | other results |
| --- | --- | --- |
|  | O=C(O)CCCNS(=O)(=O)/C=C/c1ccccc1 | inhibition [1]: 2.3% |
| 69 µM | CC(C)CCCCN(CCCCCC(=O)O)S(=O)(=O)/C=C/c1ccc(NC(=O)[C@H]2CC[C@H](C(C(=O)O)C(=O)O)CC2)cc1 |  |
| 41 µM | O=C(O)CCCCCN(CCCC1CCCCC1)S(=O)(=O)/C=C/c1ccc(NC(=O)C2CC=C(C(C(=O)O)C(=O)O)CC2)cc1 (stereo not given) |  |
|  | Nc1cccc2c(S(=O)(=O)NCC(=O)O)cccc12 | inhibition [1]: 39% |
| 7700 µM | O=C(O)C(C(=O)O)C1CC/C=C\CCC1 (stereo not given) |  |
| 12000 µM | O=C(O)C(C(=O)O)c1ccccc1 |  |
|  | O=C(O)CCNS(=O)(=O)c1ccc(F)cc1 | inhibition [1]: 0.9% |
| 350 µM | O=C(O)CCCCCNS(=O)(=O)/C=C/c1ccc(NC(=O)[C@H]2CC[C@H](C(C(=O)O)C(=O)O)CC2)cc1 |  |
| 40 µM | O=C(O)CCCCCN(CCCC1CCCCC1)S(=O)(=O)/C=C/c1ccc(NC(=O)[C@H]2CC[C@@H](C(C(=O)O)C(=O)O)CC2)cc1 |  |
| 38 µM | O=C(O)CCCCCN(CCCC1CCCCC1)S(=O)(=O)/C=C/c1ccc(NC(=O)[C@H]2CC[C@H](C(C(=O)O)C(=O)O)CC2)cc1 |  |
|  | NC(Cc1ccc(CP(=O)(O)O)cc1)C(=O)O (stereo not given) | IC50 [3]: 14000 µM |
| 63 µM | CC(C)CCCCN(CCCCCC(=O)O)S(=O)(=O)/C=C/c1ccc(NC(=O)[C@H]2CC[C@@H](C(C(=O)O)C(=O)O)CC2)cc1 |  |
| 5900 µM | O=C(O)C(C(=O)O)C1CCCCC1 |  |
|  | O=C(O)CCCCCNS(=O)(=O)/C=C/c1ccccc1 | IC50 [4]: 8000 µM |
| 71 µM | CC(C)CCCCN(CCCCCC(=O)O)S(=O)(=O)/C=C/c1ccc(NC(=O)C2CC=C(C(C(=O)O)C(=O)O)CC2)cc1 (stereo not given) |  |
